Consider 2 substances from patent publication US11058742B2, “Food composition for suppressing hepatic lipogenesis” (FUJI OIL HOLDINGS INC., priority 2019, dated 2021).

Experiment [1] concerns Fasn gene mRNA. The experiment can be described thus: Secondary screening: expression level of Fasn gene mRNA in isolated hepatocyte derived from wild-type mouse. The experiment is classed as cell-based, mouse (C57BL/6J). Particulars: each peptide 100 μg/ml final concentration, 24 hours, with insulin, LXR agonist, amino acid mixture; vs control (10% DMSO). On the procedure: (§1) In the secondary screening, evaluation is performed by measuring the expression level of Fasn gene mRNA using isolated hepatocyte derived from wild-type mouse (C57BL/6J mouse). More specifically, isolated hepatocyte derived from wild-type mouse (C57BL/6J mouse) is plated in 12-well plate in Dulbecco's modified Eagle's medium (DMEM) containing 1% penicillin and streptomycin, and 10% fetal calf serum (FCS) for 8 hours, and then subjected to 16 hours starvation by replacing the medium with Dulbecco's modified Eagle's medium (DMEM) containing 1% penicillin and streptomycin. The medium is recovered and cultured for 24 hours in a medium containing insulin, liver X receptor (LXR) agonist, amino acid mixture, and each peptide (100 μg/ml in the medium at final concentration). In addition, as a group without adding peptide, a sample to which 10% dimethyl sulfoxide (DMSO) is added instead of the peptide is similarly cultured for 24 hours. After removing the medium from each well, mRNA is extracted. The extraction of mRNA is performed with the SV Total RNA Isolation System (Promega, Z3105), reverse transcription from the RNA is performed with the PrimeScript RT reagent kit (Takara, RR0037A), and quantitative PCR is performed with the CFX384 Real-Time System and C1000 Thermal Cycler using the SYBR Select Master Mix kit (Life technologies, 4472908). The methods comply with the instructions for the kit and equipment.

Experiment [2] has as its system Fasn gene mRNA. The experiment is described as follows: Tertiary screening: Fasn gene expression level with changed amount of peptide. The experiment is classed as cell-based, mouse (C57BL/6J). To be noted: for effect of suppressing hepatic lipogenesis: conclusion from the results of primary to tertiary screening; for Fasn gene expression level (significantly reduced compared to the blank): final concentration of the sample 10, 30, 100 μg/ml, otherwise as secondary screening. Here is the method:
as §1
The amount of peptide to be added is changed (as used herein, the final concentration of the sample is 10, 30, 100 μg/ml, unless otherwise specified), and the expression level of the Fasn gene is evaluated in the same manner as in the secondary screening.

As for Tyr-Tyr, in the experiment with Fasn gene mRNA [1], the “Fasn gene expression level (significantly reduced compared to the blank)” value is “significantly suppressed the expression of the Fasn gene”. Further, in the experiment with Fasn gene mRNA [2], the “effect of suppressing hepatic lipogenesis” value is given as “an effect of suppressing hepatic lipogenesis was confirmed” and the “Fasn gene expression level (significantly reduced compared to the blank)” value is reported as “significantly suppressed the expression of the Fasn gene”.

For Val-Met, the “Fasn gene expression level (significantly reduced compared to the blank)” value in the experiment on Fasn gene mRNA [1] and in the experiment on Fasn gene mRNA [2] was “significantly suppressed the expression of the Fasn gene” each time. Further, the “effect of suppressing hepatic lipogenesis” value in the experiment with Fasn gene mRNA [2] was “an effect of suppressing hepatic lipogenesis was confirmed”.
